Patent publication US9572831B2, “Composition and method for sulfated non-anticoagulant low molecular weight heparins in cancer and tumor metastasis” (priority 2013, dated 2017)

Key:
[1] = test system: pancreatic (Panc-1) tumor; experiment: CAM tumor implant model, Panc-1; assay type: in vivo; conditions: 10 ug/CAM
human umbilical vein = experiment: In vitro human vessel perfusion model; assay type: cell-based; conditions: FIG. 3
Text: Based on published data obtained on the tumor/vessel adherence characteristics in this model [Mousa S A., Comparative pharmacodynamic assessment of the antiangiogenesis activity of heparin and low-molecular-weight heparin fractions: structure function relationship, Clin Appl Thromb Hemost, 2013, 19(1):48-54], umbilical vein was utilized for all studies. Following informed consent, fresh umbilical cord was obtained, using a sterile technique, from the placenta following normal delivery […] from patients at local hospitals. Approximately 20 cm of the cord is excised, rinsed and wiped free of blood using cold 0.9% saline and sterile gauze. Then cold saline was used to flush the vein clean of blood. Two sections of umbilical cord (approximately 3 cm each) are cut longitudinally to expose the vein surface and are pinned to the silastic base of the chamber using 27 G×1 inch needles. […]
The vein segments were perfused for 24 hours with cancer cells in platelet-rich plasma (PRP) under venous flow conditions (70 ml/min). […] Blood gases of the perfusate were measured 15 minutes after the start and just prior to the end of the perfusion period to confirm that physiological conditions were maintained. […] Statistical significance was determined by using a paired t-test. […]

tinzaparin
tumor growth or tumor angiogenesis [1]: inhibited | pancreatic cancer cell adhesion (human umbilical vein): comparable anti-adhesive potency
